Data set [1] relates to IL-2 production in human PBMCs. Particulars: phytohemagglutinin stimulated; Pandey et al 2005; cited from earlier work.
The subject of data set [2] is TNF-α production in human PBMCs. Particulars: lipo-polysaccharide induced; Pandey et al 2005; cited from earlier work.
Data set [3] relates to nuclear factor-(kappa)B and transcription factor AP-1. Particulars: Pandey et al 2005; cited from earlier work.
Data set [4] has as its system PBM cells (peripheral blood mononuclear cells). The data set is described as follows: In-vitro mitogen induced lymphocyte proliferation assay (3H-thymidine uptake). The format is cell-based. Particulars: Homo sapiens, PBMC; 20 μg/ml. The protocol: Blood (20 ml) was collected from healthy volunteers in a […] 10 ml of lymphoprep (Nycomed pharma, AS) and centrifuged at 1800 rpm for 30 minutes at 23° C., mononuclear cell containing buffy layer was transferred to another tube and washed three times with PBS (phosphate buffered saline) and centrifuged at 1500 rpm for 15 minutes. […] PBM cells were adjusted to a concentration of 1×10^6 cells/ml in RPMI buffer (Biochrom AG) and 2×10^5 cells/well were seeded in a total volume of 200 μl to a 96 well U bottom plate. […] Cultures were incorporated with 0.5 μCi[3H], 18 hours before the completion of incubation and cells were harvested on glass fiber filter using multi-well harvester and thymidine uptake was determined by measuring radioactivity on liquid scintillation counter and the mean count per minute (CPM) of triplicate was calculated.

The test system of data set [5] is TNF-α, IL-1β and iNOS mRNA expression in RAW 264.7 cells. The data set is described as follows: In-vitro effect on gene expression of inflammatory mediators (semi-quantitative RT-PCR). It counts as cell-based, mouse. Conditions: 12 hrs incubation.
In data set [6] the test system is LTB4 release from neutrophils. The experiment in a line: In-vitro leukotriene B4 (LTB4) release assay (A23187, ELISA). The format is cell-based. Conditions: Homo sapiens, Neutrophil; A23187 stimulated. The protocol: Neutrophils were isolated from freshly drawn human blood after dextran sedimentation and ficoll separation [Hatzelmann and Ullrich, Eur. J. […] Ca^++/Mg^++ (0.25 mM) was added, 3 minutes before the end of incubation with these test samples. Then, 0.3 μg/ml of A23187 (Calcimycin) was added and incubated for further 10 minutes. The reaction was stopped by adding 80 μl of cold methanol and mixture was spun at 3500 rpm for 10 minutes to remove cell debris. The samples were analyzed for LTB4 assay [Hatzelmann and Schudt, J. Pharmacol. Exp. […] (2001), 267-279] using LTB4 ELISA kits (Assay Design Inc., USA). The amount of LTB4 was quantified and percent inhibition in LTB4 release was calculated with respect to control (without test sample) to compute IC50 values.

Data set [7] deals with TNF-α release from PBM cells. The experiment in a line: In-vitro TNF-α release inhibition assay from PBMCs (LPS, ELISA). The format is cell-based. Particulars: Homo sapiens, PBMC; LPS stimulated PBM cells. The protocol:
(§1) Blood (20 ml) was collected from healthy volunteers in a heparanised vial with 10 ml of lymphoprep (Nycomed pharma, AS) and centrifuged at 1800 rpm for 30 minutes at 23° C., mononuclear cell containing buffy layer was transferred to another tube and washed three times with PBS (phosphate buffered saline) and centrifuged at 1500 rpm for 15 minutes. Pellet cells were resuspended in 2 ml of RPMI-1640 medium (Biochrom, AG) supplemented with 25 mM HEPES [N-(2-hydroxyethyl)piperazine-N′-(2-ethanesulfonic acid)], L-glutamine (2 mM), penicillin (100 U/ ml), streptomycin (100 μg/ml) and 10% inactivated FCS (fetal calf serum) and, finally viable cells were counted.
(§2) PBM cells were adjusted to 1×10^6 cells/ml number in RPMI 1640 medium, (Biochrom AG) and 100 μl volume of this cell suspension per well was plated in a 96 well plate. […] Twenty μl of DMSO control and each concentration of these prepared test samples were added to corresponding wells in a 96 well plate. The plate was incubated for 30 minutes at room temperature on rotatory shaker at 200 rpm and 50 μl of lipopolysacchride (LPS) (4 μg/ml) was added to each well, except negative LPS control wells. […] A dose response curve was generated with different concentrations of test sample and the IC50 was calculated using Graph Pad Prism. […]

Data set [8] has as its system IL-1β release from PBM cells. The data set is described as follows: In-vitro IL-1β release inhibition assay from PBMCs (LPS, ELISA). It counts as cell-based. Particulars: Homo sapiens, PBMC; LPS stimulated PBM cells; read-out: IC50 against IL-1β release. The protocol: as §1, §2
Data set [9] deals with supernatant cells. The experiment in a line: Cell viability/toxicity test (MTT assay). It counts as cell-based. The protocol:
Viability of cells was analyzed using (3-4,5-dimethylthiazol-2-yl)-2,5-diphenyl-tetrazolium bromide (MTT) assay (Mosmann T, J Immunol. Meth., 65 (1983), 55-63) with supernatant cells by adding 0.1 mL of MTT (0.25 mg/mL) with 0.1 mL of supernatant cells. The cells were incubated at 37° C. for about 2-4 hours, and then the optical density was measured at 490-650 nm.

Data set [10] relates to carrageenan induced hyperalgesia. The experiment in a line: Analgesic efficacy against carrageenan induced hyperalgesia. It counts as in vivo, wistar rats. Conditions: 5 mg/kg oral, after 2 hours.
Data set [11] has as its system CFA induced hyperalgesia. The data set is described as follows: Antihyperalgesic activity against Complete Freund's adjuvant (CFA) induced hyperalgesia. It counts as in vivo, rats. Particulars: 5 mg/kg oral, 2 hours post treatment. Here is the method:
Basal weight bearing threshold of the rats was determined using Randall Selitto analgesiometer (Ugo Basile, Italy) followed by challenge with Complete Freund's adjuvant (a suspension of desiccated Mycobacterium butyricum in a mixture of paraffin oil and an emulsifying agent, mannide monooleate; 50 μL of 500 μg/ml suspension/animal), injected subplantarly. Twenty four hours later weight-bearing threshold of the animals was recorded as pre-dose values at time 0 hours. […] Two hours post treatment, weight-bearing threshold of the animals was recorded again. […] One group was treated with Incomplete Freund's adjuvant (IFA) and served as negative control group.

The subject of data set [12] is carrageenan induced paw edema. The data set is described as follows: Anti-inflammatory efficacy against carrageenan induced paw edema model. It counts as in vivo, rats. Particulars: 5 mg/kg oral, 3 hours post carrageenan. The protocol: One hour later, animals were challenged with carrageenan (1% w/v, 100 μL/rat) subplantarly. The paw edema was recorded 3 hours post carrageenan challenge. Data from each group was expressed as mean±SEM. Change in paw edema in treatment group were compared from vehicle control group using one-way ANOVA followed by Dunnett's multiple comparison test. A p≦0.05 was considered statistically significant.

Data set [13] relates to CFA induced arthritis (contra-lateral paw volume). The experiment in a line: Antiarthritic efficacy against CFA induced arthritis model. It counts as in vivo, Wistar rats. Particulars: 0.2 mg/kg/day. The protocol:
Wistar rats were injected with 50 μL of 1 mg/ml solution of Complete Freund's adjuvant (CFA) subplantarly. […] The animals showing 0.30-0.40 ml increase in paw volume of the contralateral paw from the basal were included in the study.
The test sample or vehicle (polyethylene glycol+water 20:80) was administered in two divided doses for 10 days. The paw volume of the animals was recorded on the alternate days. A plot of change in paw volume from day 0 was made and area under the curve (AUC) was calculated using GraphPad Prism software (GraphPad Software Inc, USA, Version 4) for each animal and was averaged in each treatment group.

The test system of data set [14] is CFA induced arthritis in ankle joint. The data set is described as follows: Histopathological analysis of CFA induced arthritis in ankle joint. It counts as in vivo, Wistar rats. The protocol: At the end of the study (p), animals were euthanized and ankle joints of contra-lateral hind limb were collected for histopathological evaluation Ankle joints were evaluated for the effect on synovial proliferation, inflammation of soft tissues, pannus formation and erosion of cartilage as well as bone (FIG. 13). The changes observed were scored as 0=no change, 1 mild, 2=moderate, 3=marked and 4=severe. The scores for each parameter mentioned above were summed to obtain total histopathological score for each animal.

Data set [15] relates to formalin induced Phase I and Phase II pain. The data set is described as follows: Analgesic efficacy against formalin test. It counts as in vivo, mice. Particulars: 10 mg/kg i.p. The protocol: Thirty minutes later, formalin solution (1% w/v, 25 μL/mice) was injected subplantarly in mice and immediately after injection, duration of mice licking or flicking of the injected paw was recorded for a period of 30 minutes in 5 minute slots. The first five minutes duration constitutes Phase-I pain which is centrally mediated while Phase-II pain which lasts from 10-30 minutes is peripherally mediated pain. Values of each group were expressed as mean±SEM (standard error of mean) and comparison was made with control group using one-way ANOVA followed by Dunnett's multiple test and a p≦0.05 was considered statistically significant.

Data set [16] deals with LPS induced TNF-α release (plasma). The experiment in a line: Anti-inflammatory efficacy against endotoxemia. The format is in vivo, female Balb/C mice. Particulars: 10 mg/kg oral. The text has this: One hour later, animals were challenged with LPS (lipopolysacchride). Ninety minutes later, blood was collected and TNF-α was estimated in the plasma using ELISA kit and values for each treatment group was expressed as mean±SEM. Comparison was made with control group using one-way ANOVA followed by Dunnett's multiple test and a p≦0.05 was considered statistically significant.

Structures are written as SMILES. In brackets after ≈: the same amount, converted by molar mass.

For the compound `COc1cc2oc(-c3ccc(O)cc3)c(OC3OC(CO)C(O)C(O)C3O)c(=O)c2c(O)c1OC` [Bd-I, eupalitin-3-O-beta-D-galactopyranoside], the “production of IL-2 at the protein and mRNA transcript levels” value in data set [1] is reported as “inhibited”. Besides, in data set [2], the TNF-α production result was “inhibited”. Further, the “activation of DNA binding of nuclear factor-(kappa)B and AP-1” value in [3] was “block the activation of DNA binding”.
`Cc1c(O)cc2oc3c(c(=O)c2c1O)-c1ccccc1OC3O` (centres unmarked) [Boeravinone B]: the inhibition at 20 µg/mL in data set [4] was 66%. Further, in [5], the “expression of TNF-α, IL-1β and iNOS” value was “down regulated all the 3 inflammatory mediators”. In addition, the IC50 in data set [6] was above 100 µg/mL; in data set [7], 6.8 µg/mL (≈ 21.8 µM); in data set [8] it was 3.6 µg/mL (≈ 11.5 µM). The “concentration at 50% viability of tested cells” value in [9] worked out at 64.5 µg/mL.
With `Cc1c(O)cc2oc3c(c(=O)c2c1O)-c1ccc(O)cc1OC3O` (centres unmarked) [Boeravinone E], in [4], testing at 20 µg/mL gave an inhibition of 59%. The “expression of TNF-α, IL-1β and iNOS” value in data set [5] is on record as “down regulated all the 3 inflammatory mediators”. The IC50 in [6] is 21.8 µg/mL (≈ 66.4 µM); in data set [7], 7 µg/mL (≈ 21.3 µM); in [8], 7 µg/mL (≈ 21.3 µM). For the same compound, the “concentration at 50% viability of tested cells” value in data set [9] is 81.5 µg/mL.
For the compound `COc1ccc2c(c1)c(CC(=O)O)c(C)n2C(=O)c1ccc(Cl)cc1` [Indomethacin], the “inhibition (carrageenan induced hyperalgesia)” value in data set [10] is on record as 66%. Also, the “reversal of the hyperalgesia induced by CFA” value in data set [11] is 64%. Further, the “inhibition of carrageenan induced paw edema” value in data set [12] was found to be 48%. Also, the paw edema entry in [13] was “reversal of the paw edema toward basal level”. For the same compound, the “% inhibition (histopathological score)” value in data set [14] (0.2 mg/kg) is on record as 62.8%. For the same compound, the “recruitment of inflammatory cells” value in data set [14] (0.2 mg/kg/day, FIG. 13 A) is “completely prevented the recruitment of inflammatory cells”. Moreover, the Pannus formation result in data set [14] (0.2 mg/kg/day, FIG. 13 B) is “mild”. Further, the “inhibitory effect on cartilage degradation” value in data set [14] (0.2 mg/kg/day, FIG. 13 C) is recorded as “prominent”.
Regarding `CC(C)=CCN1CCC2(C)c3cc(O)ccc3CC1C2C` (centres unmarked) [Pentazocin], in data set [15], the “percent protection in Phase-I pain” value came to 40% and the “percent protection in Phase-II pain” value came to 50%.
As to `O=c1ncn2nc(Sc3ccc(F)cc3F)ccc2c1-c1c(Cl)cccc1Cl` [Vx745], the “inhibition of LPS response (TNF-α)” value in data set [16] is reported as 59%.

These data come from US20100120902A1, “STANDARIZED BIOACTIVE HERBAL EXTRACTS” (RANBAXY LABORATORIES LIMITED, priority 2007, published 2010).
